Measurements from US8426392B2, “Method for providing emergency contraception” (Laboratoire HRA-Pharma, priority 2009, dated 2013).
Entries after “also recorded” stand apart in the source; their conditions may differ. Where two headings read alike, the source gives them in different places. Marks after values point to notes of the source that are not given here.

Assays:
[1] = in vivo
Experimental: (§1) A specific food interaction study was conducted, in which the pharmacokinetic profile of ulipristal acetate and its main metabolite 3877A was evaluated after single administration of a 30-mg ulipristal acetate micronized tablet either under fasted conditions or after a high-fat breakfast. The main pharmacokinetic parameters were evaluated, including maximum plasma concentration (Cmax), area under the drug concentration curve (AUC) from time 0 to time of last determinable concentration or to infinity, and the time to maximum plasma concentration (tmax).
(§2) A second oral administration followed, after at least a 21-day wash-out period.
(§3) Analysis of Cmax and AUC was carried out by analysis of variance using PROC MIXED® program on the logarithmically transformed data. The 90% standard confidence interval limits for relative treatment differences was calculated by geometric means based on logarithmic transformation of the intra-individual ratios of Cmax and AUC.
(§4) The analysis of tmax was based on Wilocoxon-Mann-Whitney test adapted according to the methodology of Koch. Estimate for treatment difference and 90% confidence interval was estimated according to the method of Moses.

[2] = Phase III pregnancy rates after 30 mg ulipristal acetate tablet by food intake prior to treatment; assay type: in vivo, human; settings: for Observed PR (pregnancy rate): 30 mg tablet
Experimental: With respect to clinical efficacy, data on last food intake prior to study drug was collected in a subset of subjects (n=1185) included in the phase III program of development of the 30 mg ulipristal acetate tablet for emergency contraception. Pregnancy rates (PR) were compared between women who reported having eaten within two hours prior to treatment intake versus those who reported having eaten only earlier.

[3] = used within 72 hours of unprotected intercourse; cited from earlier work
[4] = Food interaction study: bioavailability of a single 30 mg oral dose of ulipristal acetate in fed and fasting states; settings: for AUC(0-t) / AUC(0-inf) / Cmax / Tmax / half-life: female, human, plasma, oral, 30 mg; for AUC(0-t): AUC0-t; for AUC(0-inf): AUC0-∞
Experimental: as §1, §2, §3, §4

[5] = Fed vs. Fasted condition, ANOVA
[6] = fasted, single 30 mg tablet, mean ± SD
[7] = fed (high-fat breakfast), single 30 mg tablet, mean ± SD

## CNc1ccc([C@H]2C[C@@]3(C)[C@@H](CC[C@]3(OC(C)=O)C(C)=O)[C@@H]3CCC4=CC(=O)CCC4=C32)cc1 [3877A, 17α-acetoxy-11β-[4-N-methylamino-phenyl)-19-norpregna-4,9-diene-3,20-dione]
[1]; human
  terminal elimination half-life: around 30 h
[1]; human, 30 mg
  AUC0-∞: 265 ng·h/mL
  AUC(0-t): 244 ng·h/mL
  Cmax: 86.5 ng/mL
  Tmax: 0.75 h
  t1/2: 30.0 ± 7.56^c h
[1]
  AUC0-t, point estimate of the fed/fasted ratio of least squares geometric means: 121.72^a %
  AUC0-∞, point estimate of the fed/fasted ratio of least squares geometric means: 118.73^c %
  Cmax, point estimate of the fed/fasted ratio of least squares geometric means: 62.45%

## CC(=O)O[C@]1(C(C)=O)CC[C@H]2[C@@H]3CCC4=CC(=O)CCC4=C3[C@@H](c3ccc(N(C)C)cc3)C[C@@]21C [ulipristal acetate, 17α-acetoxy-11β-[4-N,N-dimethylamino-phenyl)-19-norpregna-4,9-diene-3,20-dione]
[2]; food intake 2 h or more before ulipristal acetate intake
  Expected PR (pregnancy rate): 5.56%
[2]; food intake 2 h or more before ulipristal acetate intake, n=905
  Observed PR (pregnancy rate): 1.44%
[2]; food intake less than 2 h before ulipristal acetate intake
  Expected PR (pregnancy rate): 5.27%
[2]; food intake less than 2 h before ulipristal acetate intake, n=279
  Observed PR (pregnancy rate): 1.79%
[2]; phase III trials, eaten within two hours prior to intake versus earlier
  effect of food on efficacy in emergency contraception (pregnancy rate): the same therapeutic efficacy; also recorded: no significant effect
[3]
  efficacy for preventing pregnancy compared with levonorgestrel: as efficacious as levonorgestrel
[4]; [5]
  AUC0-t, point estimate of the fed/fasted ratio of least squares geometric means: 123.30^a %
  AUC0-∞, point estimate of the fed/fasted ratio of least squares geometric means: 126.20^b %
  Cmax, point estimate of the fed/fasted ratio of least squares geometric means: 56.25%
[4]; compared with administration in a fasted state
  higher mean AUC0-∞ with a high-fat breakfast: 25%
[4]; fasted, single 30 mg tablet, median (range)
  tlag: 0.00 (0.00-0.00) h
[4]; fed (high-fat breakfast), single 30 mg tablet, median (range)
  tlag: 0.00 (0.00-0.50) h
[4]; [6]
  AUC(0-t): 467 ng·h/mL
  AUC(0-inf): 474 ng·h/mL
[4]; [7]
  AUC(0-t): 566 ng·h/mL
  AUC(0-inf): 608 ng·h/mL
[4]; fasted, single 30 mg ulipristal acetate micronized tablet, healthy women, mean ± SD
  Cmax: 173 ng/mL
[4]; fed (high-fat breakfast), single 30 mg ulipristal acetate tablet, mean ± SD
  Cmax: 99.2 ng/mL
[4]; Tmax (median), fasted state, as stated for the printed matter
  Tmax: 0.75 h
[4]; Tmax (median), with a high-fat breakfast, as stated for the printed matter
  Tmax: 3 h
[4]; t1/2, fasted, single 30 mg tablet, mean ± SD
  half-life: 37.2 ± 7.19 h
[4]; t1/2, fed (high-fat breakfast), single 30 mg tablet, mean ± SD
  half-life: 36 ± 7.78 h
[4]; terminal elimination half-life, average, independently of the food condition
  half-life: ~36 h
[4]; tmax, fasted, single 30 mg tablet, median (range)
  Tmax: 0.75 h
[4]; tmax, fed (high-fat breakfast), single 30 mg tablet, median (range)
  Tmax: 3 h
